Results published in patent US20100298141A1, “SUBSTITUTED PYRIDINE N-OXIDE HERBICIDES” (E. I. DU PONT DE NEMOURS AND COMPANY, priority 2007, published 2010).

Columns and labels:
duck salad = test: Test C flooded paddy test; type: in vivo, Heteranthera limosa; settings: Flood
Outline: (§1)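 Greenhouse pots flooded to 3 cm above soil at time of treatment received compound via the water, which stayed at that level.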

blackgrass = test: Test C pre-/postemergence test; type: in vivo, Alopecurus myosuroides
Outline: (§2)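 Test chemicals were formulated with surfactant in a non-phytotoxic solvent and sprayed both on freshly planted seeds (preemergence) and on 1- to 4-leaf plants of 2–18 cm (postemergence). Flooded-paddy pots received compound directly into 3 cm of standing water, maintained for the test.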

green foxtail = test: Test C pre-/postemergence test; type: in vivo, Setaria viridis
Outline: as §2

barnyardgrass = test: Test C flooded paddy test; type: in vivo, Echinochloa crus-galli; settings: Flood
Outline: as §1

giant foxtail = test: Test C pre-/postemergence test; type: in vivo, Setaria faberii
Outline: as §2

catchweed bedstraw = test: Test C pre-/postemergence test; type: in vivo, Galium aparine; settings: for Plant response rating, Galium: 31 g ai/ha, scale 0 to 100 (0 no effect, 100 complete control)
Outline: as §2

cocklebur = test: Test C pre-/postemergence test; type: in vivo, Xanthium strumarium
Outline: as §2

Italian ryegrass = test: Test C pre-/postemergence test; type: in vivo, Lolium multiflorum
Outline: as §2

corn = test: Test C pre-/postemergence test; type: in vivo, Zea mays
Outline: as §2

morningglory = test: Test C pre-/postemergence test; type: in vivo, Ipomoea coccinea
Outline: as §2

velvetleaf [1] = test: Test C pre-/postemergence test; type: in vivo, Abutilon theophrasti
Outline: as §2

velvetleaf [2] = test: Test A pre-/postemergence greenhouse test; type: in vivo, Abutilon theophrasti; settings: for Plant response rating, Velvetleaf: 0 to 100 scale where 0 is no effect and 100 is complete control; for Velvetleaf plant response rating: 0 to 100 scale
Outline: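 Visual injury ratings, made relative to untreated controls roughly ten days after treatment, cover both preemergence and postemergence application. Compounds in a surfactant-containing non-phytotoxic solvent were sprayed onto the soil surface after sowing and, simultaneously, onto young plants at the one- to two-leaf stage.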

woolly cupgrass = test: Test C pre-/postemergence test; type: in vivo, Eriochloa villosa
Outline: as §2

downy brome = test: Test C pre-/postemergence test; type: in vivo, Bromus tectorum
Outline: as §2

soybean = test: Test C pre-/postemergence test; type: in vivo, Glycine max
Outline: as §2

johnsongrass = test: Test C pre-/postemergence test; type: in vivo, Sorghum halepense
Outline: as §2

wild oat = test: Test C pre-/postemergence test; type: in vivo, Avena fatua
Outline: as §2

[3] = 62 g ai/ha, scale 0 to 100 (0 no effect, 100 complete control)
[4] = 250 g ai/ha, scale 0 to 100, 0 no effect, 100 complete control, 13 to 15 days
[5] = 62 g ai/ha, Preemergence, scale 0 to 100
[6] = 125 g ai/ha, preemergence, scale 0 (no effect) to 100 (complete control)
[7] = Preemergence, 31 g ai/ha, scale 0 to 100 (0 no effect, 100 complete control)
[8] = preemergence, 250 g ai/ha, scale 0 (no effect) to 100 (complete control)
[9] = Postemergence, 500 g ai/ha, 0 is no effect, 100 is complete control
[10] = Preemergence, 125 g ai/ha, 0 no effect, 100 complete control
[11] = Postemergence, 62 g ai/ha, scale 0 to 100, 0 no effect, 100 complete control
[12] = Postemergence, 125 g ai/ha, scale 0 to 100, 0 no effect, 100 complete control
[13] = Postemergence, 250 g ai/ha, scale 0 to 100, 0 no effect, 100 complete control

Cc1cc[n+]([O-])c(S(=O)(=O)Cc2c(C(F)(F)F)nn(C)c2OC(C)C(F)(F)F)c1 (centres unmarked) [Compound 96]
90: Velvetleaf plant response rating (velvetleaf [1]; [8])
50: Plant response rating, Velvetleaf (velvetleaf [2]; Postemergence, 125 g ai/ha) | Plant response rating, Cupgrass, Woolly (woolly cupgrass; [7]) | Bromegrass, Downy plant response rating (downy brome; [5]) | Plant response rating, Bromegrass, Downy (downy brome; [7])
98: Foxtail, Green plant response rating (green foxtail; [6]) | Foxtail, Giant plant response rating (giant foxtail; [8]) | Galium plant response rating (catchweed bedstraw; [6]) | Ryegrass, Italian plant response rating (Italian ryegrass; [5]) | Cupgrass, Woolly plant response rating (woolly cupgrass; [8]) | Oat, Wild plant response rating (wild oat; [8])
40: Cocklebur plant response rating (cocklebur; [8]) | Velvetleaf plant response rating (velvetleaf [1]; [6]) | Velvetleaf plant response rating (velvetleaf [2]; [10]) | Soybean plant response rating (soybean; [6])
35: Corn plant response rating (corn; [6])
0: Plant response rating, Ducksalad (duck salad; [3]) | Plant response rating, Barnyardgrass (barnyardgrass; [3]) | Plant response rating, Barnyardgrass (barnyardgrass; [4]) | Plant response rating, Galium (catchweed bedstraw; Preemergence) | Cocklebur plant response rating (cocklebur; [5]) | Plant response rating, Cocklebur (cocklebur; [7]) | Corn plant response rating (corn; [5]) | Plant response rating, Corn (corn; [7]) | Plant response rating, Morningglory (morningglory; [7]) | Plant response rating, Velvetleaf (velvetleaf [1]; [7])
100: Blackgrass plant response rating (blackgrass; [5]) | Blackgrass plant response rating (blackgrass; [6]) | Blackgrass plant response rating (blackgrass; [8]) | Foxtail, Green plant response rating (green foxtail; [8]) | Galium plant response rating (catchweed bedstraw; [8]) | Ryegrass, Italian plant response rating (Italian ryegrass; [6]) | Ryegrass, Italian plant response rating (Italian ryegrass; [8]) | Morningglory plant response rating (morningglory; [8]) | Velvetleaf plant response rating (velvetleaf [2]; Preemergence, 500 g ai/ha, 0 no effect, 100 complete control) | Johnsongrass plant response rating (johnsongrass; [6]) | Johnsongrass plant response rating (johnsongrass; [8])
10: Cocklebur plant response rating (cocklebur; [6])
60: Plant response rating, Ryegrass, Italian (Italian ryegrass; [7]) | Corn plant response rating (corn; [8]) | Velvetleaf plant response rating (velvetleaf [2]; [9])
65: Plant response rating, Blackgrass (blackgrass; [7])
55: Plant response rating, Ducksalad (duck salad; [4]) | Bromegrass, Downy plant response rating (downy brome; [8])
70: Morningglory plant response rating (morningglory; [5]) | Cupgrass, Woolly plant response rating (woolly cupgrass; [5]) | Soybean plant response rating (soybean; [8]) | Plant response rating, Johnsongrass (johnsongrass; [7]) | Plant response rating, Oat, Wild (wild oat; [7])
95: Foxtail, Green plant response rating (green foxtail; [5]) | Plant response rating, Foxtail, Green (green foxtail; [7]) | Foxtail, Giant plant response rating (giant foxtail; [6]) | Morningglory plant response rating (morningglory; [6]) | Cupgrass, Woolly plant response rating (woolly cupgrass; [6]) | Johnsongrass plant response rating (johnsongrass; [5]) | Oat, Wild plant response rating (wild oat; [6])
20: Soybean plant response rating (soybean; [5]) | Plant response rating, Soybean (soybean; [7])
80: Foxtail, Giant plant response rating (giant foxtail; [5]) | Plant response rating, Foxtail, Giant (giant foxtail; [7]) | Galium plant response rating (catchweed bedstraw; [5]) | Oat, Wild plant response rating (wild oat; [5])
30: Velvetleaf plant response rating (velvetleaf [1]; [5])

Cn1nc(C(F)(F)F)c(C[S+]([O-])c2ccc(Cl)c[n+]2[O-])c1OCC(F)(F)F (racemic) [Compound 62]
50: Plant response rating, Morningglory (morningglory; [7]) | Plant response rating, Cupgrass, Woolly (woolly cupgrass; [13]) | Bromegrass, Downy plant response rating (downy brome; [5]) | Plant response rating, Bromegrass, Downy (downy brome; [7]) | Plant response rating (0 to 100), Soybean (soybean; Postemergence, 62 g ai/ha) | Plant response rating, Oat, Wild (wild oat; [13])
20: Plant response rating, Foxtail, Green (green foxtail; [11])
80: Plant response rating, Blackgrass (blackgrass; [13]) | Plant response rating, Foxtail, Green (green foxtail; [13]) | Plant response rating, Foxtail, Green (green foxtail; [7]) | Plant response rating, Ryegrass, Italian (Italian ryegrass; [12]) | Plant response rating, Corn (corn; [7])
40: Plant response rating (0 to 100), Blackgrass (blackgrass; Postemergence, 31 g ai/ha) | Plant response rating, Blackgrass (blackgrass; [11]) | Plant response rating, Foxtail, Green (green foxtail; [12]) | Plant response rating, Foxtail, Giant (giant foxtail; [12]) | Plant response rating, Velvetleaf (velvetleaf [1]; [13]) | Plant response rating, Velvetleaf (velvetleaf [1]; [7])
100: Blackgrass plant response rating (blackgrass; [6]) | Blackgrass plant response rating (blackgrass; [8]) | Foxtail, Green plant response rating (green foxtail; [5]) | Foxtail, Green plant response rating (green foxtail; [6]) | Foxtail, Green plant response rating (green foxtail; [8]) | Foxtail, Giant plant response rating (giant foxtail; [5]) | Foxtail, Giant plant response rating (giant foxtail; [6]) | Foxtail, Giant plant response rating (giant foxtail; [8]) | Galium plant response rating (catchweed bedstraw; [5]) | Galium plant response rating (catchweed bedstraw; [6]) | Plant response rating, Galium (catchweed bedstraw; Preemergence) | Galium plant response rating (catchweed bedstraw; [8]) | Ryegrass, Italian plant response rating (Italian ryegrass; [8]) | Corn plant response rating (corn; [6]) | Corn plant response rating (corn; [8]) | Morningglory plant response rating (morningglory; [6]) | Morningglory plant response rating (morningglory; [8]) | Velvetleaf plant response rating (velvetleaf [1]; [6]) | Velvetleaf plant response rating (velvetleaf [1]; [8]) | Velvetleaf plant response rating (velvetleaf [2]; [10]) | Plant response rating, Velvetleaf (velvetleaf [2]; Preemergence, 500 g ai/ha) | Cupgrass, Woolly plant response rating (woolly cupgrass; [6]) | Cupgrass, Woolly plant response rating (woolly cupgrass; [8]) | Soybean plant response rating (soybean; [5]) | Soybean plant response rating (soybean; [6]) | Johnsongrass plant response rating (johnsongrass; [5]) | Johnsongrass plant response rating (johnsongrass; [6]) | Johnsongrass plant response rating (johnsongrass; [8]) | Oat, Wild plant response rating (wild oat; [8])
5: Plant response rating, Velvetleaf (velvetleaf [1]; [12])
70: Plant response rating, Ducksalad (duck salad; [3]) | Plant response rating, Barnyardgrass (barnyardgrass; [4]) | Plant response rating, Foxtail, Giant (giant foxtail; [13]) | Plant response rating, Foxtail, Giant (giant foxtail; [7]) | Plant response rating, Ryegrass, Italian (Italian ryegrass; [7]) | Cupgrass, Woolly plant response rating (woolly cupgrass; [5]) | Bromegrass, Downy plant response rating (downy brome; [6]) | Plant response rating, Soybean (soybean; [7]) | Plant response rating, Johnsongrass (johnsongrass; [7]) | Plant response rating, Oat, Wild (wild oat; [7])
90: Plant response rating, Blackgrass (blackgrass; [7]) | Ryegrass, Italian plant response rating (Italian ryegrass; [6]) | Plant response rating, Ryegrass, Italian (Italian ryegrass; [13]) | Morningglory plant response rating (morningglory; [5]) | Velvetleaf plant response rating (velvetleaf [1]; [5]) | Velvetleaf plant response rating (velvetleaf [2]; [9])
95: Oat, Wild plant response rating (wild oat; [6])
85: Plant response rating, Ducksalad (duck salad; [4]) | Ryegrass, Italian plant response rating (Italian ryegrass; [5]) | Bromegrass, Downy plant response rating (downy brome; [8]) | Oat, Wild plant response rating (wild oat; [5])
98: Blackgrass plant response rating (blackgrass; [5]) | Corn plant response rating (corn; [5])
45: Plant response rating, Bromegrass, Downy (downy brome; [12])
10: Plant response rating, Corn (corn; [13])
30: Plant response rating, Barnyardgrass (barnyardgrass; [3]) | Cocklebur plant response rating (cocklebur; [6]) | Plant response rating, Morningglory (morningglory; [13]) | Plant response rating (0 to 100), Soybean (soybean; Postemergence, 31 g ai/ha) | Plant response rating, Oat, Wild (wild oat; [12])
0: Plant response rating (0 to 100), Foxtail, Green (green foxtail; Postemergence, 31 g ai/ha) | Plant response rating (0 to 100), Foxtail, Giant (giant foxtail; Postemergence, 31 g ai/ha) | Plant response rating, Foxtail, Giant (giant foxtail; [11]) | Plant response rating (0 to 100), Cocklebur (cocklebur; Postemergence, 31 g ai/ha) | Plant response rating, Cocklebur (cocklebur; [11]) | Plant response rating, Cocklebur (cocklebur; [12]) | Plant response rating, Cocklebur (cocklebur; [13]) | Plant response rating, Cocklebur (cocklebur; [7]) | Plant response rating (0 to 100), Ryegrass, Italian (Italian ryegrass; Postemergence, 31 g ai/ha) | Plant response rating (0 to 100), Ryegrass, Italian (Italian ryegrass; Postemergence, 62 g ai/ha) | Plant response rating (0 to 100), Corn (corn; Postemergence, 31 g ai/ha) | Plant response rating, Corn (corn; [11]) | Plant response rating, Corn (corn; [12]) | Plant response rating (0 to 100), Morningglory (morningglory; Postemergence, 31 g ai/ha) | Plant response rating, Morningglory (morningglory; [11]) | Plant response rating, Morningglory (morningglory; [12]) | Plant response rating (0 to 100), Velvetleaf (velvetleaf [1]; Postemergence, 31 g ai/ha) | Plant response rating (0 to 100), Velvetleaf (velvetleaf [1]; Postemergence, 62 g ai/ha) | Plant response rating (0 to 100), Cupgrass, Woolly (woolly cupgrass; Postemergence, 31 g ai/ha) | Plant response rating, Cupgrass, Woolly (woolly cupgrass; [11]) | Plant response rating, Cupgrass, Woolly (woolly cupgrass; [12]) | Plant response rating, Cupgrass, Woolly (woolly cupgrass; [7]) | Plant response rating (0 to 100), Bromegrass, Downy (downy brome; Postemergence, 31 g ai/ha) | Plant response rating, Bromegrass, Downy (downy brome; [11]) | Plant response rating (0 to 100), Johnsongrass (johnsongrass; Postemergence, 31 g ai/ha) | Plant response rating, Johnsongrass (johnsongrass; [11]) | Plant response rating, Johnsongrass (johnsongrass; [12]) | Plant response rating, Johnsongrass (johnsongrass; [13]) | Plant response rating (0 to 100), Oat, Wild (wild oat; Postemergence, 31 g ai/ha) | Plant response rating, Oat, Wild (wild oat; [11])
60: Plant response rating, Blackgrass (blackgrass; [12]) | Cocklebur plant response rating (cocklebur; [8]) | Plant response rating, Velvetleaf (velvetleaf [2]; Postemergence, 125 g ai/ha) | Plant response rating, Bromegrass, Downy (downy brome; [13]) | Plant response rating, Soybean (soybean; [12])
